This test relates to Ba/F3 LMNA-NTRK1-G595R cells. Briefly: Assay for inhibiting the proliferation of Ba/F3 LMNA-NTRK1-G595R cells (CCK-8). To be noted: Mus musculus, BaF3. In kind it is cell-based. In short, it runs like this: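 Cells seeded in 96-well plates overnight, then exposed 72 h to 9 three-fold dilutions of compound (0.25% DMSO final). Viability by CCK-8 (1-2 h at 37° C., OD 450 nm), survival normalized to untreated and cell-free blanks; IC50 by curve fitting.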

The IC50 is the point on the concentration scale where inhibition reaches its midpoint. The low end stands for greater potency, the high end for weaker potency. As for `COCCn1cc(C(=O)Nc2ccc(Oc3ccnc4cc(OC)c5c(c34)OCCO5)c(F)c2)c(=O)n(-c2ccc(F)cc2)c1=O` [Example 46, N-(3-fluoro-4-((5-methoxy-2,3-dihydro-[1,4]dioxino[2,3-f]quinolin-10-yl)oxy)phenyl)-3-(4-fluorophenyl)-1-(2-methoxyethyl)-2,4-dioxo-1,2,3,4-tetrahydropyrimidine-5-carboxamide], the IC50 lay in the range of 50 to 200 nM.

The compound `CC(=O)N1CCN(CCCOc2cc3nccc(Oc4ccc(NC(=O)c5cn(C(C)C)c(=O)n(-c6ccc(F)cc6)c5=O)cc4F)c3c3c2OCCO3)CC1` [Example 75, N-(3-fluoro-4-((5-(3-(4-acetylpiperazin-1-yl)propoxy)-2,3-dihydro-[1,4]dioxino[2,3-f]quinolin-10-yl)oxy)phenyl)-3-(4-fluorophenyl)-1-isopropyl-2,4-dioxo-1,2,3,4-tetrahydropyrimidine-5-carboxamide] gave an IC50 of 200 to 1000 nM.

In turn, `CC(C)n1cc(C(=O)Nc2ccc(Oc3ccnc4cc(OCCCN5CCCC5)c5c(c34)OCCO5)c(F)c2)c(=O)n(-c2ccc(F)cc2)c1=O` [Example 77, N-(3-fluoro-4-((5-(3-(pyrrolidin-1-yl)propoxy)-2,3-dihydro-[1,4]dioxino[2,3-f]quinolin-10-yl)oxy)phenyl)-3-(4-fluorophenyl)-1-isopropyl-2,4-dioxo-1,2,3,4-tetrahydropyrimidine-5-carboxamide] displayed an IC50 of 200 to 1000 nM.

Turning to `CC(C)n1cc(C(=O)Nc2ccc(Oc3ccnc4cc(OCCCO)c5c(c34)OCCO5)c(F)c2)c(=O)n(-c2ccc(F)cc2)c1=O` [Example 79, N-(3-fluoro-4-((5-(3-hydroxypropoxy)-2,3-dihydro-[1,4]dioxino[2,3-f]quinolin-10-yl)oxy)phenyl)-3-(4-fluorophenyl)-1-isopropyl-2,4-dioxo-1,2,3,4-tetrahydropyrimidine-5-carboxamide], the IC50 is 50 to 200 nM.

On to `Cn1cc(C(=O)Nc2ccc(Oc3ccnc4cc(OC5CCOC5)c5c(c34)OCCO5)c(F)c2)c(=O)n(-c2ccc(F)cc2)c1=O` (stereo not drawn) [Example 90, N-(3-fluoro-4-((5-((tetrahydrofuran-3-yl)oxy)-2,3-dihydro-[1,4]dioxino[2,3-f]quinolin-10-yl)oxy)phenyl)-3-(4-fluorophenyl)-1-methyl-2,4-dioxo-1,2,3,4-tetrahydropyrimidine-5-carboxamide], for which the IC50 is 50 to 200 nM.

As to `CN1CCN(CCCOc2cc3nccc(Oc4ccc(NC(=O)c5cn(C)c(=O)n(-c6ccc(F)cc6)c5=O)cc4F)c3c3c2OCCO3)CC1` [Example 74, N-(3-fluoro-4-((5-(3-(4-methylpiperazin-1-yl)propoxy)-2,3-dihydro-[1,4]dioxino[2,3-f]quinolin-10-yl)oxy)phenyl)-3-(4-fluorophenyl)-1-methyl-2,4-dioxo-1,2,3,4-tetrahydropyrimidine-5-carboxamide], the IC50 lay within 200 to 1000 nM.

As to `CC(C)n1cc(C(=O)Nc2ccc(Oc3ccnc4cc(OCCO)c5c(c34)OCCO5)c(F)c2)c(=O)n(-c2ccc(F)cc2)c1=O` [Example 78, N-(3-fluoro-4-((5-(2-hydroxyethoxy)-2,3-dihydro-[1,4]dioxino[2,3-f]quinolin-10-yl)oxy)phenyl)-3-(4-fluorophenyl)-1-isopropyl-2,4-dioxo-1,2,3,4-tetrahydropyrimidine-5-carboxamide], the IC50 was 50 to 200 nM.

For the compound `COCCOc1cc2nccc(Oc3ccc(NC(=O)c4cn(C(C)C)c(=O)n(-c5ccc(F)cc5)c4=O)cc3F)c2c2c1OCCO2` [Example 43, N-(3-fluoro-4-((5-(2-methoxyethoxy)-2,3-dihydro-[1,4]dioxino[2,3-f]quinolin-10-yl)oxy)phenyl)-3-(4-fluorophenyl)-1-isopropyl-2,4-dioxo-1,2,3,4-tetrahydropyrimidine-5-carboxamide], the IC50 lay in the range of 50 to 200 nM.

On to `CCn1cc(C(=O)Nc2ccc(Oc3ccnc4cc(OCCOC)c5c(c34)OCCO5)c(F)c2)c(=O)n(-c2ccc(F)cc2)c1=O` [Example 44, N-(3-fluoro-4-((5-(2-methoxyethoxy)-2,3-dihydro-[1,4]dioxino[2,3-f]quinolin-10-yl)oxy)phenyl)-3-(4-fluorophenyl)-1-ethyl-2,4-dioxo-1,2,3,4-tetrahydropyrimidine-5-carboxamide], for which the IC50 was at most 50 nM.

The values above are taken from US12202835B2, “Substituted aromatic ring-linked dioxinoquinazolines and dioxinoquinolines as kinase inhibitors” (BEIJING SCITECH-MQ PHARMACEUTICALS LIMITED, priority 2018, dated 2025).
